Data from patent US20080194491A1, “Methods of Diagnosing, Preventing, and Treating Early Onset of Pulmonary Hypertension” (priority 2002, published 2008).

What was measured:
mammary epithelial cells = conditions: absence of extracellular matrix; cited from earlier work
lung apoptosis after MCT = test: Early caspase inhibition after MCT: lung apoptosis by TUNEL assay; type: in vivo, Rats
Experimental: The methods set out in Example 3 were employed. In this set of experiments, the inventors tried to establish the effect of apoptosis inhibitors on the early development of the apoptotic pathways. They blocked the caspase activity at a much earlier time point (18 hours post MCT injection and another injection 24 hours after that) using two classes of caspase inhibitors, namely Z-Asp (2.5 mg/Kg) and Z-VAD (1.5 mg/Kg; see FIG. 10 for details). Rats were sacrificed 24, 48 and 72 hours post last dose of inhibitors/DMSO injection and lungs were collected for histology and activity assay. Apoptosis were measured by both TUNEL and caspase activity assays, as previously described.

T-lymphocyte cell line = conditions: cited from earlier work
motoneurons = conditions: in vitro and in vivo; cited from earlier work
[1] = tested on: Human pulmonary artery cells (HPAEC); test: HPAEC apoptosis induced by TNF (caspase activity assay); type: cell-based; conditions: pretreatment 100-200 ng/ml for 2 hours, TNF 10-20 ng/ml
Experimental: (§1) The inventors investigated the effect of BMPR2 signaling on pulmonary endothelial cell proliferation and survival. Human pulmonary artery […] cells (HPAEC) were grown in EBM-2 medium supplemented with 2% FBS and growth factors (Clonetics). Apoptosis was induced either by serum withdrawal (see FIG. 17) or exposure of cells to TNFα. […] Apoptosis was evaluated by three independent methods: 1) flow cytometry using Annexin V, a Ca2+ dependent phospholipid-binding protein with affinity for phosphatidylserine (PS; translocation of PS from the inner leaflet of plasma membrane to the outer layer occurs during the early stage of apoptosis), 2) TUNEL assay and, 3) caspase activity assay.

[2] = tested on: Human pulmonary artery epithelial cells (HPAEC); test: HPAEC apoptosis induced by serum withdrawal (flow cytometry Annexin V, TUNEL); type: cell-based; conditions: pretreatment 100-200 ng/ml for 2 hours; flow cytometry and TUNEL assay
Experimental: as §1

For `CC(C)(C)OC(=O)N[C@@H](CC(=O)OCc1ccccc1)C(=O)CCl` [Boc-D-(benzyl) chloromethylketone], the “cell death of mammary epithelial cells” value (mammary epithelial cells) is listed as “prevented”.

In the case of Z-VAD, the inhibition of apoptosis (lung apoptosis after MCT; 48 or 72 hours after the last treatment) is reported as “less potent” and the inhibition of apoptosis (lung apoptosis after MCT; 24 hours after the last treatment) is reported as “most effective”.

In the case of acetyl-DEVD-aldehyde, the anti-Fas induced apoptosis (T-lymphocyte cell line) is listed as “inhibited”.

For acetyl-YVAD-aldehyde, the death of motoneurons (motoneurons) is listed as “blocked”.

In the case of acetyl-YVAD-chloromethylketone, the death of motoneurons (motoneurons) is listed as “blocked”.

B1: BMP7: bone morphogenetic protein (protein, UniProt P18075 293-431, looked up)
Bone morphogenetic protein 7: STGSKQRSQNRSKTPKNQEALRMANVAENSSSDQRQACKKHELYVSFRDLGWQDWIIAPEGYAAYYCEGECAFPLNSYMNATNHAIVQTLVHFINPETVPKPCCAPTQLNAISVLYFDDSSNVILKKYRNMVVRACGCH
In the case of B1, the “apoptosis induced by TNF treatment” value [1] is reported as “protect the cells from apoptosis” and the “apoptosis induced by serum withdrawal” value [2] is reported as “protected the cells from apoptosis”.
